Assay results as given in ChEMBL document CHEMBL4507260 (2021).

Key:
[1] = target: Sodium channel alpha subunit (Na+ channel) (Homo sapiens, UniProt P35498+P35499+Q01118+Q14524+Q15858+Q99250+Q9NY46+Q9UI33+Q9UQD0+Q9Y5Y9); assay: Na+ channel CEREP ligand profiling; format: protein assay; details: compound concentration 10 uM
[2] = target: Somatostatin receptor (Homo sapiens) (UniProt P35346+P30874+P31391+P30872+P32745); details: Compound concentration 10.0 uM
Description: Somatostatin CEREP ligand profiling

[3] = target: 5-hydroxytryptamine receptor 1A (Homo sapiens) (UniProt P08908); assay: 5-HT1A CEREP ligand profiling; details: Compound concentration 10.0 uM
Sequence of 5-hydroxytryptamine receptor 1A (Homo sapiens) (P08908 whole entry): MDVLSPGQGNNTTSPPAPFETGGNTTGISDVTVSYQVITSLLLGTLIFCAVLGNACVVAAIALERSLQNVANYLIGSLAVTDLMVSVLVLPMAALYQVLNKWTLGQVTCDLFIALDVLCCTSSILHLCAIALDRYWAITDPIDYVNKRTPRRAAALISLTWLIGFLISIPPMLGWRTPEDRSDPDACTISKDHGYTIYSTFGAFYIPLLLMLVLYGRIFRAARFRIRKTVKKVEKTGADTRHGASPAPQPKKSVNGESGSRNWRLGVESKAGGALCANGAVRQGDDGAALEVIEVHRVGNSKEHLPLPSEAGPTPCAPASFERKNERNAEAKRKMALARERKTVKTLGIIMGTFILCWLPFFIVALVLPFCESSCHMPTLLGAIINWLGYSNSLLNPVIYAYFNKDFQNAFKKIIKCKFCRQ

[4] = target: Muscarinic acetylcholine receptor M1 (Homo sapiens) (UniProt P11229); details: Compound concentration 10.0 uM
Sequence of Muscarinic acetylcholine receptor M1 (Homo sapiens) (P11229 whole entry): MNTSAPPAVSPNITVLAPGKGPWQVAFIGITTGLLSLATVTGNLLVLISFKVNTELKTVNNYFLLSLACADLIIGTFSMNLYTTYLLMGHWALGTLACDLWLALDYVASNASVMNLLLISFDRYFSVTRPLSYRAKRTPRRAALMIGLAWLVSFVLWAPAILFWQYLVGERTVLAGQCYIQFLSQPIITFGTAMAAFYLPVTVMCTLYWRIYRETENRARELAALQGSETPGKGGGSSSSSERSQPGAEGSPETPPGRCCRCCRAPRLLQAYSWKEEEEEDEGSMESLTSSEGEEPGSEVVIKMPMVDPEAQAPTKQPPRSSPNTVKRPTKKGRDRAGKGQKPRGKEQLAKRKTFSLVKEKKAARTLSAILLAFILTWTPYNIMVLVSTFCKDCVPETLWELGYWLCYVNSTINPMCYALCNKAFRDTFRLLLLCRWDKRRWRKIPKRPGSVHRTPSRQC
Description: M1 CEREP ligand profiling

[5] = target: Neurotensin receptor type 1 (Homo sapiens) (UniProt P30989); details: Compound concentration 10.0 uM
Sequence of Neurotensin receptor type 1 (Homo sapiens) (P30989 whole entry): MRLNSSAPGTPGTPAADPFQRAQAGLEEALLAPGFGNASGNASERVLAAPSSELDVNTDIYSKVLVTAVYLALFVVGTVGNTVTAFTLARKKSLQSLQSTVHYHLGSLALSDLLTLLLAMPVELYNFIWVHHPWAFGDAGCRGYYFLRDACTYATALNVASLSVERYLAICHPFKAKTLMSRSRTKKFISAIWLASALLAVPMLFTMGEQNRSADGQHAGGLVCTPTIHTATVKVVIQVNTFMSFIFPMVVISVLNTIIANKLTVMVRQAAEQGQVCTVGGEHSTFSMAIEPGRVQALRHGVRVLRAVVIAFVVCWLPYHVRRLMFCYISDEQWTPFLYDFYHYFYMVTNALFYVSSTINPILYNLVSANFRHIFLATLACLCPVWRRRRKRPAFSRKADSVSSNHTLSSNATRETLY
Description: NT1 (NTS1) CEREP ligand profiling

[6] = target: Vasoactive intestinal polypeptide receptor 1 (Homo sapiens) (UniProt P32241); details: Compound concentration 10.0 uM
Description: VIP1 (VPAC1) CEREP ligand profiling

[7] = target: Adrenergic receptor alpha-2 (Homo sapiens) (UniProt P08913+P18825+P18089); assay: a 2 CEREP ligand profiling; format: protein assay; details: Compound concentration 10.0 uM
[8] = target: Muscarinic acetylcholine receptor M4 (Homo sapiens) (UniProt P08173); details: Compound concentration 10.0 uM
Description: M4 CEREP ligand profiling

[9] = target: C-C chemokine receptor type 1 (Homo sapiens) (UniProt P32246); details: Compound concentration 10.0 uM
Sequence of C-C chemokine receptor type 1 (Homo sapiens) (P32246 whole entry): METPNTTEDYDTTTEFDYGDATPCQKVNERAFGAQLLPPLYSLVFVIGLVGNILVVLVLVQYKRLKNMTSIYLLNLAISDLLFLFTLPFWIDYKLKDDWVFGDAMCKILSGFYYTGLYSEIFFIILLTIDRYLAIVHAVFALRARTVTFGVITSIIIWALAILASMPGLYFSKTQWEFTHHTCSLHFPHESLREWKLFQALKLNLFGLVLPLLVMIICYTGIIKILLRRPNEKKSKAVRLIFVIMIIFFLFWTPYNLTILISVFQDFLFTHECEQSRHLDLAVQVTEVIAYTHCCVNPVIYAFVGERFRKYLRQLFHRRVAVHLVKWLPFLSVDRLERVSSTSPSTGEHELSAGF
Description: CCR1 CEREP ligand profiling

[10] = target: Histamine H2 receptor (Homo sapiens) (UniProt P25021); details: Compound concentration 10.0 uM
Description: H2 CEREP ligand profiling

[11] = target: 5-hydroxytryptamine receptor 7 (Homo sapiens) (UniProt P34969); details: Compound concentration 10.0 uM
Sequence of 5-hydroxytryptamine receptor 7 (Homo sapiens) (P34969 whole entry): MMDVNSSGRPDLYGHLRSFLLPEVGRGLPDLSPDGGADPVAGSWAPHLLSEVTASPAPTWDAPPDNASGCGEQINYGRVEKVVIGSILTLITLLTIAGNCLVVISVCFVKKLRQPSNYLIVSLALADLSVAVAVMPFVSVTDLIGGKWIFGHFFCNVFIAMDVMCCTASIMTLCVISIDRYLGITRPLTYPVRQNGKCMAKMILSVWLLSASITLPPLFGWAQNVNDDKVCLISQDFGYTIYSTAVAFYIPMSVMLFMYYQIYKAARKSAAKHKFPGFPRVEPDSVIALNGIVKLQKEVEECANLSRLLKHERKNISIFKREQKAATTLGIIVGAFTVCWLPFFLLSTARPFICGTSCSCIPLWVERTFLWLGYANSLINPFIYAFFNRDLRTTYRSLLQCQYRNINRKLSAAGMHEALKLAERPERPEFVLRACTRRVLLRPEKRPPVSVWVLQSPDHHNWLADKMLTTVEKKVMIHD
Description: 5-HT7 CEREP ligand profiling

[12] = target: Adenosine receptor A1 (Homo sapiens) (UniProt P30542); details: Compound concentration 10.0 uM
Description: A1 CEREP ligand profiling

[13] = target: Voltage-gated potassium channel (K+V channel) (Homo sapiens, UniProt O43525+O43526+O95259+P16389+P17658+P22001+P22459+P22460+P48547+P51787+P56696+Q03721+Q09470+Q12809+Q14003+Q14721+Q16322+Q6PIU1+Q8NCM2+Q8TAE7+Q8TDN1+Q8TDN2+Q92953+Q96KK3+Q96L42+Q96PR1+Q96RP8+Q9BQ31+Q9H252+Q9H3M0+Q9NR82+Q9NS40+Q9NSA2+Q9NZV8+Q9UIX4+Q9UJ96+Q9UK17+Q9ULD8+Q9ULS6+Q9UQ05); assay: K+V channel CEREP ligand profiling; format: protein assay; details: compound concentration 10 uM
[14] = target: Neuromedin-K receptor (Homo sapiens) (UniProt P29371); assay: NK3 CEREP ligand profiling; details: Compound concentration 10.0 uM
[15] = target: Calcitonin-gene-related peptide receptor, CALCRL/RAMP1 (Homo sapiens) (UniProt O60894+Q16602); details: Compound concentration 10.0 uM
Description: CGRP CEREP ligand profiling

[16] = target: Substance-K receptor (Homo sapiens) (UniProt P21452); assay: NK2 CEREP ligand profiling; details: Compound concentration 10.0 uM
Sequence of Substance-K receptor (Homo sapiens) (P21452 whole entry): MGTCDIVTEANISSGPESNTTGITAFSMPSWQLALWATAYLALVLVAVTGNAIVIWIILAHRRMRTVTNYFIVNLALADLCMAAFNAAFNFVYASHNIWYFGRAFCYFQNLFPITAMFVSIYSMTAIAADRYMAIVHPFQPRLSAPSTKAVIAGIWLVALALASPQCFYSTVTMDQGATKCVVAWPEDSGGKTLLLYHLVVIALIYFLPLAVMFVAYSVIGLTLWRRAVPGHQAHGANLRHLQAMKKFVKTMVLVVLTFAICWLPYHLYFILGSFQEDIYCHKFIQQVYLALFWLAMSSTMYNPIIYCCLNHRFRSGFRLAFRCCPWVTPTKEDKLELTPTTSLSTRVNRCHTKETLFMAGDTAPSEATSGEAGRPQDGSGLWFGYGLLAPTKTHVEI

[17] = target: Beta-2 adrenergic receptor (Homo sapiens) (UniProt P07550); assay: b 2 CEREP ligand profiling; details: Compound concentration 10.0 uM
Sequence of Beta-2 adrenergic receptor (Homo sapiens) (P07550 whole entry, looked up): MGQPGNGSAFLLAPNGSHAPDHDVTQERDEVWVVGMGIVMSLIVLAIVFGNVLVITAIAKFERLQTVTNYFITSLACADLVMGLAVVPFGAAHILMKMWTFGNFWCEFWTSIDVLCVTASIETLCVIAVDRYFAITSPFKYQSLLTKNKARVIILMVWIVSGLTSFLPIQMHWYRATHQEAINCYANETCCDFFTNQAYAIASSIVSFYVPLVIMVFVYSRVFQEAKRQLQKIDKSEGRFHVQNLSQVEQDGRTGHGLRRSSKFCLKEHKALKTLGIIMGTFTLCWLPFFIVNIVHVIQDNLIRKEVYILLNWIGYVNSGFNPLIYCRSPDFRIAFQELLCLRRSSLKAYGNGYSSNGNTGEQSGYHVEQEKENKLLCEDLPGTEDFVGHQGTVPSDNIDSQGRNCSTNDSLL

[18] = target: Galanin receptor type 1 (Homo sapiens) (UniProt P47211); details: Compound concentration 10.0 uM
Description: GAL1 CEREP ligand profiling

[19] = target: D(2) dopamine receptor (Homo sapiens) (UniProt P14416); details: Compound concentration 10.0 uM
Description: D2 CEREP ligand profiling

[20] = target: Tumor necrosis factor (Homo sapiens) (UniProt P01375); details: Compound concentration 10.0 uM
Description: TNF-a CEREP ligand profiling

[21] = target: B2 bradykinin receptor (Homo sapiens) (UniProt P30411); details: Compound concentration 10.0 uM
Sequence of B2 bradykinin receptor (Homo sapiens) (P30411 whole entry): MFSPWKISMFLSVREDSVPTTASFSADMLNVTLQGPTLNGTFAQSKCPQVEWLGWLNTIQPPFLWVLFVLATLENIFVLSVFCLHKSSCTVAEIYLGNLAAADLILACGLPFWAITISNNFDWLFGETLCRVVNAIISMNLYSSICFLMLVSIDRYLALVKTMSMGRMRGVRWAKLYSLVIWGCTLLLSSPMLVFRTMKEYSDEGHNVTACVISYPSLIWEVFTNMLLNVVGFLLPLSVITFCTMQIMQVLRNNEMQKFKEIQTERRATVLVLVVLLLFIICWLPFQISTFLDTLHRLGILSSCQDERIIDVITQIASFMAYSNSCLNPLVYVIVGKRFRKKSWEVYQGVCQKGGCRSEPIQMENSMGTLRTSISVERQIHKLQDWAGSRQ
Description: B2 CEREP ligand profiling

[22] = target: Neuropeptide Y receptor type 1 (Homo sapiens) (UniProt P25929); details: Compound concentration 10.0 uM
Sequence of Neuropeptide Y receptor type 1 (Homo sapiens) (P25929 whole entry): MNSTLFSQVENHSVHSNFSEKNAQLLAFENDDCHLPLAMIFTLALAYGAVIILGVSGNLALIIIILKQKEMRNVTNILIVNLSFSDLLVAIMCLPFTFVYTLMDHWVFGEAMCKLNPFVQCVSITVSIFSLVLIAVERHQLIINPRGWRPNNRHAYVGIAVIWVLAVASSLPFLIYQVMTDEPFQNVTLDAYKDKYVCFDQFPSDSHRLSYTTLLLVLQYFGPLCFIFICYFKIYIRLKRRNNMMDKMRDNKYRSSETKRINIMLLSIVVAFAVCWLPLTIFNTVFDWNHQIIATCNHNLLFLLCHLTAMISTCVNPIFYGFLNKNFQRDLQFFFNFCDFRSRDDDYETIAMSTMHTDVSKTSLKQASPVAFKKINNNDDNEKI
Description: Y1 CEREP ligand profiling

[23] = target: Type-2 angiotensin II receptor (Homo sapiens) (UniProt P50052); details: Compound concentration 10.0 uM
Sequence of Type-2 angiotensin II receptor (Homo sapiens) (P50052 whole entry): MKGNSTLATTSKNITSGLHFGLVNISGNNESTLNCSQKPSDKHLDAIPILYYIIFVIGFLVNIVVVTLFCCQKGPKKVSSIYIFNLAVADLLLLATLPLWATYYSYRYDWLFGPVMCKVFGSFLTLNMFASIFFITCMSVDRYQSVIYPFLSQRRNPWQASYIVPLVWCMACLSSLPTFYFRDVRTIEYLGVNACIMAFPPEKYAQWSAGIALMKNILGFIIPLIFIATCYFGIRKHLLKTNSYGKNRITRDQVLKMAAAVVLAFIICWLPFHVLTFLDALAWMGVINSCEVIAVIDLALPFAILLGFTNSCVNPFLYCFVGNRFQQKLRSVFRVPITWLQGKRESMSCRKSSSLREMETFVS
Description: AT2 CEREP ligand profiling

[24] = target: Calcium-activated potassium channel (Homo sapiens) (UniProt Q92952+Q9UGI6+Q12791+O15554+Q9H2S1+A8MYU2); details: Compound concentration 10.0 uM
Description: SK+Ca channel CEREP ligand profiling

[25] = target: P2Y receptor (Homo sapiens) (UniProt Q9H244+P51582+P47900+P41231+Q15391+Q15077+Q96G91+Q9BPV8); details: Compound concentration 10.0 uM
Description: P2Y CEREP ligand profiling

[26] = target: GABA-A receptor; anion channel (Homo sapiens) (UniProt P14867+P47870+P18507+P28472+P48169+Q99928+Q9UN88+P34903+O00591+O14764+Q8N1C3+P18505+P78334+P47869+P31644+Q16445); details: Compound concentration 10.0 uM
Description: BZD (central) CEREP ligand profiling

[27] = target: Cholecystokinin receptor type A (Homo sapiens) (UniProt P32238); details: Compound concentration 10.0 uM
Sequence of Cholecystokinin receptor type A (Homo sapiens) (P32238 whole entry): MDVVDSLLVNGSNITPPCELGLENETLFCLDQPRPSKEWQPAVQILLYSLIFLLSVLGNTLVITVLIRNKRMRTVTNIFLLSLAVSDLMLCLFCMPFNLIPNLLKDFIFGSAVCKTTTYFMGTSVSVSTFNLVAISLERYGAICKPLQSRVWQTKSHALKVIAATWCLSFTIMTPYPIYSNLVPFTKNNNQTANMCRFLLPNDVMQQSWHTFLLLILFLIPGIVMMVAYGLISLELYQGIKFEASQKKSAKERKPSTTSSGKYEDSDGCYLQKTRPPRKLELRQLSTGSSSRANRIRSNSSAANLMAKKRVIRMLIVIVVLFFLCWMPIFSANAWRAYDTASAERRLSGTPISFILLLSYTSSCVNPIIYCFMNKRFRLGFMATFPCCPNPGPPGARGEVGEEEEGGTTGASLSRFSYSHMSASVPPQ
Description: CCKA (CCK1) CEREP ligand profiling

[28] = target: P2X receptor (Rattus norvegicus) (UniProt P51579+P49653+P51578+Q64663+P47824+P51577+P49654); details: Compound concentration 10.0 uM
Description: P2X CEREP ligand profiling

[29] = target: 5-hydroxytryptamine receptor 1B (Homo sapiens) (UniProt P28222); details: Compound concentration 10.0 uM
Description: 5-HT1B CEREP ligand profiling

[30] = target: Vasopressin V1a receptor (Homo sapiens) (UniProt P37288); details: Compound concentration 10.0 uM
Description: V1A CEREP ligand profiling

[31] = target: Cannabinoid receptor 2 (Homo sapiens) (UniProt P34972); details: Compound concentration 10.0 uM
Description: CB2 CEREP ligand profiling

[32] = target: Histamine H1 receptor (Homo sapiens) (UniProt P35367); assay: H1 CEREP ligand profiling; details: Compound concentration 10.0 uM
[33] = target: D(4) dopamine receptor (Homo sapiens) (UniProt P21917); details: Compound concentration 10.0 uM
Sequence of D(4) dopamine receptor (Homo sapiens) (P21917 whole entry): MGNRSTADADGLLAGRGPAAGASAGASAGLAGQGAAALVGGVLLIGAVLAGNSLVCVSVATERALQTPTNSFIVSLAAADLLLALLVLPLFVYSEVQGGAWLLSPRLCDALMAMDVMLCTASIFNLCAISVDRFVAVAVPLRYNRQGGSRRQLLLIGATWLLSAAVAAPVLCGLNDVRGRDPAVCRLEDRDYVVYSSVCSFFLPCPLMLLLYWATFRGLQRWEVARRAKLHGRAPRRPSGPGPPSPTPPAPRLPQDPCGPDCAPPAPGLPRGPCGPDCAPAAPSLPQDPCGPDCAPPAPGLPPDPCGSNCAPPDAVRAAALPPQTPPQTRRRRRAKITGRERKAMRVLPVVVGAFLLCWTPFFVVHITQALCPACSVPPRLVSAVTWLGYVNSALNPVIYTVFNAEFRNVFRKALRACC
Description: D4 CEREP ligand profiling

[34] = target: Adenosine receptor A3 (Homo sapiens) (UniProt P0DMS8); assay: A3 CEREP ligand profiling; details: Compound concentration 10.0 uM
[35] = target: Kappa-type opioid receptor (Homo sapiens) (UniProt P41145); assay: kappa CEREP ligand profiling; details: Compound concentration 10.0 uM
[36] = target: Delta-type opioid receptor (Homo sapiens) (UniProt P41143); details: Compound concentration 10.0 uM
Description: delta CEREP ligand profiling

[37] = target: 5-hydroxytryptamine receptor 6 (Homo sapiens) (UniProt P50406); details: Compound concentration 10.0 uM
Description: 5-HT6 CEREP ligand profiling

[38] = target: Beta-1 adrenergic receptor (Homo sapiens) (UniProt P08588); details: Compound concentration 10.0 uM
Description: b 1 CEREP ligand profiling

[39] = target: Dual specificity protein kinase CLK4 (Homo sapiens) (UniProt Q9HAZ1); details: Compound concentration 1000.0 nM
[40] = tested on: Epidermal growth factor receptor (Homo sapiens), P00533 [UNDEFINED MUTATION]; details: Compound concentration 1000.0 nM

With `c1ccc(N2CCN(Cc3nc4ccccc4[nH]3)CC2)nc1` [ABT-724] the inhibition at 10 µM [1] was < 10% (not active), the inhibition [2] was < 10% and the inhibition [3] was 73%. The inhibition [4] was < 10%, the inhibition [5] was < 10% and the inhibition [6] was < 10%. For the same compound, the inhibition [7] was 21%, the inhibition [8] was < 10% and the inhibition [9] was < 10%. For the same compound, the inhibition [10] was < 10%, the inhibition [11] was < 10% and the inhibition [12] was < 10%. For the same compound, the inhibition at 10 µM [13] was < 10% (not active), the inhibition [14] was 26% and the inhibition [15] was < 10%. For the same compound, the inhibition [16] was 15%, the inhibition [17] was 13% and the inhibition [18] was < 10%. For the same compound, the inhibition [19] was < 10%, the inhibition [20] was < 10% and the inhibition [21] was < 10%. The inhibition [22] was < 10%, the inhibition [23] was < 10% and the inhibition [24] was < 10%. For the same compound, the inhibition [25] was < 10%, the inhibition [26] was < 10% and the inhibition [27] was < 10%. The inhibition [28] was < 10%, the inhibition [29] was < 10% and the inhibition [30] was < 10%. For the same compound, the inhibition [31] was < 10%, the inhibition [32] was 17% and the inhibition [33] was 99%. For the same compound, the inhibition [34] was 11%, the inhibition [35] was 68% and the inhibition [36] was < 10%. The inhibition [37] was < 10% and the inhibition [38] was < 10%.

With `CSc1cccnc1N1CCN(Cc2nc3ccccc3[nH]2)CC1` [A-769] the residual activity [39] was 100% and the residual activity [40] was 82%.
